Laboratory results reported in ChEMBL document CHEMBL5329150, “STING antagonists, synthesized via Povarov-Doebner type multicomponent reaction” (RSC Med Chem, 2023).

Target: Cyclic GMP-AMP synthase (Mus musculus, UniProt Q8C6L5)
Assay: Inhibition of mouse cGAS by ATP consumption assay

Chain of Cyclic GMP-AMP synthase (Q8C6L5 whole entry): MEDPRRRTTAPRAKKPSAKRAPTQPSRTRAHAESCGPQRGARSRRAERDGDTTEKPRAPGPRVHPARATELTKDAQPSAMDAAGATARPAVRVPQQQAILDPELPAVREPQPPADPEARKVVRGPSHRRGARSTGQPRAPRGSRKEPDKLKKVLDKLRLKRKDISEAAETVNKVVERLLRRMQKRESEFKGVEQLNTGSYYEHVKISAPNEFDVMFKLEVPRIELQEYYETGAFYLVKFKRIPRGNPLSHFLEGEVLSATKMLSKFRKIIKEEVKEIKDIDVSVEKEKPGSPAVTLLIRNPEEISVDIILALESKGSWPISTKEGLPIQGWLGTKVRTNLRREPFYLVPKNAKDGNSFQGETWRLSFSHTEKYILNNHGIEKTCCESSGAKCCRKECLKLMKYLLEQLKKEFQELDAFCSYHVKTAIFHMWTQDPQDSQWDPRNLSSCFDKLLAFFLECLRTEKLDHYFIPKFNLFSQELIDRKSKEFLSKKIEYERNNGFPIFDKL

IC50: 270 nM
Compound: CCn1nc(C)cc1C(=O)Nc1nc2cc(C(N)=O)cc(OC)c2n1C/C=C/Cn1c(NC(=O)c2cc(C)nn2CC)nc2cc(C(N)=O)cc(OCCCN3CCOCC3)c21
